We go through 6 molecules from US20180360040A1, “PESTICIDAL COMPOUNDS AND THEIR USES” (priority 2015, published 2018).

Assay type in all cases: in vivo
The test system of experiment [1] is Diabrotica balteata. Nature of the experiment: Example B1: Diabrotica balteata (corn root worm), sprayed maize sprouts. The following applies: 96 h, read-out: effect in at least one of the two categories (mortality or growth inhibition). The method, then: Example B1: Diabrotica balteata (Corn Root Worm)
Maize sprouts placed onto an agar layer in 24-well microtiter plates were treated with aqueous test solutions prepared from 10,000 ppm DMSO stock solutions by spraying. After drying, the plates were infested with L2 larvae (6 to 10 per well). The samples were assessed for mortality and growth inhibition in comparison to untreated samples 4 days after infestation.

For experiment [2], the system named is Myzus persicae. Kind of experiment: Example B4: Myzus persicae (green peach aphid), intrinsic activity. The following applies: 120 h, test rate 12 ppm, 5 days after infestation. The source says: Example B4: Myzus persicae (Green Peach Aphid): Intrinsic Activity
Test compounds prepared from 10,000 ppm DMSO stock solutions were applied by pipette into 24-well microtiter plates and mixed with sucrose solution. The plates were closed with a stretched Parafilm. A plastic stencil with 24 holes was placed onto the plate and infested pea seedlings were placed directly on the Parafilm. The infested plate was closed with a gel blotting paper and another plastic stencil and then turned upside down. The samples were assessed for mortality 5 days after infestation.

Experiment [3] has as its system Plutella xylostella. Nature of the experiment: Example B4 (second): Plutella xylostella (diamond back moth), artificial diet. The following applies: 120 h, application rate 200 ppm, L2 larvae, 5 days after infestation, read-out: effect in at least one of the two categories (mortality or growth inhibition). The method, then: Example B4: Plutella xylostella (Diamond Back Moth)
24-well microtiter plates with artificial diet were treated with aqueous test solutions prepared from 10,000 ppm DMSO stock solutions by pipetting. After drying, the plates were infested with L2 larvae (10 to 15 per well). The samples were assessed for mortality and growth inhibition in comparison to untreated samples 5 days after infestation.

The test system of experiment [4] is Spodoptera littoralis. Nature of the experiment: Example B5: Spodoptera littoralis (Egyptian cotton leaf worm), sprayed cotton leaf discs. The conditions noted are these: foliar, 72 h, application rate 200 ppm, L1 larvae, 3 days after infestation, read-out: control (mortality, anti-feeding effect, growth inhibition). On the procedure:
Example B5: Spodoptera littoralis (Egyptian Cotton Leaf Worm)
Cotton leaf discs were placed onto agar in 24-well microtiter plates and sprayed with aqueous test solutions prepared from 10,000 ppm DMSO stock solutions. After drying the leaf discs were infested with five L1 larvae. The samples were assessed for mortality, anti-feeding effect, and growth inhibition in comparison to untreated samples 3 days after infestation. Control of Spodoptera littoralis by a test sample is given when at least one of the categories mortality, anti-feedant effect, and growth inhibition is higher than the untreated sample.

Experiment [5] deals with Aedes aegypti. Kind of experiment: Example B11: insecticide impregnated polymer surfaces (LDPE sheets), Aedes aegypti. The following applies: 2% active ingredient in LDPE sheets, after 48 h and/or 24 h. The source says:
(§1) Example B11: Evaluation of Insecticide Impregnated Polymer Surfaces
(§2) Preparation of polymeric sheets: Compound P1.17 was impregnated into LDPE (low density polyethylene) by mixing the respective polymer with the compound at high temperatures and the resultant polymeric material was then mould into thin discs or plaques.
(§3) Twenty four hours prior to the relevant assessment intervals, three to five day old non-blood fed adult mosquitoes were taken from the culture and lightly anaesthetised with carbon dioxide. Ten females were selected and placed in a 250 ml plastic cup, retained with a net lid, provided with a 10% sucrose solution soaked in a cotton wool bung and held under culturing environmental conditions.
(§4) After twenty four hours, impregnated polymer sheets (measuring about 150 mm in diameter and about 0.1 mm in thickness) were removed from storage and wrapped around the glazed side of an 11 cm ceramic tile and held in place with an elastic band. The age of the polymer sheets used were either 1-2 weeks or 10 weeks old. A cup of the pre-selected mosquitoes were again lightly anaesthetised with carbon dioxide and transferred from the holding cup to the base of a 9 cm plastic Petri dish. The relevant impregnated polymer sheet was placed over the Petri dish and held in place with an elastic band. Once the mosquitoes had recovered from the anaesthetic, ca. 1 minute, the impregnated polymer sheet was placed on a holding rack, such that treated side was at an angle of 60° to the horizontal.
(§5) After one hour an assessment of mosquito knockdown was made. A mosquito was said to be knocked down if it was unable to right itself once it had fallen over. The mosquitoes were lightly anaesthetised again, and removed from the Petri dish exposure chamber and returned to the holding cups. The mosquitoes were supplied with a 10% sucrose solution soaked in a cotton wool bung and held under culturing environmental conditions. An assessment of mortality was made 24 hours and 48 hours after exposure. A mosquito was said to be dead if it is unable to right itself once it had fallen over.

In experiment [6] the test system is Anopheles stephensi. Kind of experiment: Example B11: insecticide impregnated polymer surfaces (LDPE sheets), Anopheles stephensi. The following applies: 2% active ingredient in LDPE sheets, after 48 h and/or 24 h.
Description: as §1, §2, §3, §4, §5

Experiment [7] has as its system Tetranychus urticae. Kind of experiment: Example B7: Tetranychus urticae (two-spotted spider mite), feeding/contact activity. The following applies: 192 h, application rate 200 ppm, mixed population (mobile stages), 8 days after infestation. On the procedure:
Example B7: Tetranychus urticae (Two-Spotted Spider Mite): Feeding/Contact Activity
Bean leaf discs on agar in 24-well microtiter plates were sprayed with aqueous test solutions prepared from 10,000 ppm DMSO stock solutions. After drying the leaf discs were infested with a mite population of mixed ages. The samples were assessed for mortality on mixed population (mobile stages) 8 days after infestation.

The test system of experiment [8] is Euschistus heros. Kind of experiment: Example B2: Euschistus heros (neotropical brown stink bug), sprayed soybean leaves. The conditions noted are these: 120 h, application rate 200 ppm, N2 nymphs, 5 days after infestation, read-out: effect in at least one of the two categories (mortality or growth inhibition). On the procedure:
Example B2: Euschistus heros (Neotropical Brown Stink Bug)
Soybean leaves on agar in 24-well microtiter plates were sprayed with aqueous test solutions prepared from 10,000 ppm DMSO stock solutions. After drying the leaves were infested with N2 nymphs. The samples were assessed for mortality and growth inhibition in comparison to untreated samples 5 days after infestation.

In experiment [9] the test system is Spodoptera littoralis. Nature of the experiment: Example B6: Spodoptera littoralis (Egyptian cotton leaf worm), root uptake by lettuce from agar. The conditions noted are these: 144 h, test rate 12.5 ppm, 6 days after infestation, read-out: effect in at least one of the three categories (mortality, anti-feeding, or growth inhibition). The source says:
Example B6: Spodoptera littoralis (Egyptian Cotton Leaf Worm)
Test compounds were applied by pipette from 10,000 ppm DMSO stock solutions into 24-well plates and mixed with agar. Lettuce seeds were placed onto the agar and the multi well plate was closed by another plate which contained also agar. After 7 days the compound was absorbed by the roots and the lettuce grew into the lid plate. The lettuce leaves were then cut off into the lid plate. Spodoptera eggs were pipetted through a plastic stencil onto a humid gel blotting paper and the lid plate was closed with it. The samples were assessed for mortality, anti-feedant effect and growth inhibition in comparison to untreated samples 6 days after infestation.

Where only a bound is given, the exact number is not on record here.

For `CN1OC(c2ccc(-c3ccc(F)cc3)cc2)(C2CC2)N=C1NC(C)(C)C` (stereo not shown) [Compound P1.137, N-tert-butyl-5-cyclopropyl-5-[4-(4-fluorophenyl)phenyl]-2-methyl-1,2,4-oxadiazol-3-amine], in [1], the percent control (mortality or growth inhibition) at 200 ppm was at least 80%.

As for `CN1OC(c2ccccc2)(C2CC2)N=C1N(C)C(C)(C)C` (stereo not shown) [Compound P1.18, N-tert-Butyl-5-cyclopropyl-N,2-dimethyl-5-phenyl-1,2,4-oxadiazol-3-amine], the percent control (mortality or growth inhibition) at 200 ppm in [1] was at least 80%.

Turning to `CN1OC(c2ccccc2)(C2CC2)N=C1NC(C)(C)C` (stereo not shown) [Compound P1.17, N-tert-Butyl-5-cyclopropyl-2-methyl-5-phenyl-1,2,4-oxadiazol-3-amine], the percent control (mortality or growth inhibition) at 200 ppm in [1] is at least 80%. The mortality – broadly, the percentage killed – at 12 ppm in experiment [2] was at least 80%. Besides, in [3], the percent effect (mortality or growth inhibition) at 200 ppm is at least 80%. Moreover, the mortality at 200 ppm in [4] is at least 80%. The “control of Aedes Aegypti” value in experiment [5] (sheet after 1 week), in experiment [5] (sheet after 2 weeks) and in [5] (sheet after 10 weeks) was “at least 80%” throughout. The “control of Anopheles stephensi” value in experiment [6] (sheet after 1 week), in [6] (sheet after 2 weeks) and in [6] (sheet after 10 weeks) was “at least 80%” in each case.

Turning to `CCC1(c2ccccc2)N=C(NC(C)(C)C)N(C)O1` (stereo not shown) [Compound P1.94, N-tert-Butyl-5-ethyl-2-methyl-5-phenyl-1,2,4-oxadiazol-3-amine], in experiment [1], the percent control (mortality or growth inhibition) at 200 ppm is at least 80%. The mortality at 200 ppm in [7] was at least 80%.

Take `CN1OC(c2ccc(C#N)cc2)(C2CC2)N=C1NC(C)(C)C` (stereo not shown) [Compound P1.136, 4-[3-(tert-butylamino)-5-cyclopropyl-2-methyl-1,2,4-oxadiazol-5-yl]benzonitrile]: the percent control (mortality or growth inhibition) at 200 ppm in experiment [1] was at least 80%.

For `CN1OC(c2ccc(F)cc2)(C2CC2)N=C1NC(C)(C)C(F)(F)F` (stereo not shown) [Compound P1.88, 5-Cyclopropyl-5-(4-fluorophenyl)-2-methyl-N-(2,2,2-trifluoro-1,1-dimethyl-ethyl)-1,2,4-oxadiazol-3-amine], in [1], the percent control (mortality or growth inhibition) at 200 ppm is at least 80%. Besides, the percent effect (mortality or growth inhibition) at 200 ppm in experiment [8] and in experiment [3] was at least 80% in each case. Further, in [2], the mortality at 12 ppm is at least 80%. The mortality at 200 ppm in experiment [4] and in experiment [7] was at least 80% in each case. Besides, in experiment [9], the percent effect (mortality, anti-feeding or growth inhibition) at 12.5 ppm is at least 80%.
